Patent US12115174B2, “Dendrimer formulations” (AstraZeneca AB, priority 2018, dated 2024)

Key:
Type in all cases: in vivo
[1] = tested on: Cleaved poly ADP ribose polymerase (PARP); test: Cleaved PARP response (cell death) after a single dose; details: Compound A in HP-β-CD formulation
Protocol: Cleaved poly ADP ribose polymerase (PARP) response was used as a measure of cell death.
Additionally, cell death (apoptosis) was measured using cleaved PARP (FIG. 4).

[2] = tested on: human acute lymphoblastic leukemia cells (RS4:11); test: RS4:11 Acute Lymphoblastic Leukemia xenograft efficacy in SCID mice
Protocol: The efficacy evaluation of the vehicle (phosphate buffer saline), Compound A (formulated in 30% HP-β-CD, pH 4), Compound 1 in PBS (equivalent to 10 mg/kg Compound A) and Compound 2 in PBS (equivalent to 10 mg/kg and 30 mg/kg Compound A) is shown.
The efficacy evaluation of the vehicle (phosphate buffer saline, PBS), a formulation of Compound A in 30% HP-β-CD, Compound 1 in PBS (equivalent to 20 mg/kg Compound A) and Compound 2 in PBS (equivalent to 20 mg/kg Compound A) and is shown.
Preparation of Compounds 1 and 2 PBS formulations for dosing RS4:11 efficacy study: The appropriate amounts of Compound 1 and 2 were weighed into a volumetric flask. 10 mL Dulbecc's Phosphate Buffered Saline (PBS) was added and formulations were then stirred until the compound dissolved entirely.
The appropriate amount of Compound A was weighed into a 10 mL volumetric flask. 8 mL of 30% w/v HP-β-CD vehicle was then added and the formulation stirred. 1M MSA was added dropwise until the pH was reduced to about 2. The formulation was then stirred until the compound dissolved entirely. The pH was measured and adjusted to pH 4, dropwise using 1M MSA or NaOH. The formulation was then stirred to make sure a clear solution (with possible haze) was obtained. The volume was then made up to 10 mL with 30% w/v HP-β-CD vehicle and stirred. The final pH was measured and recorded and the formulation filtered through a […] filter prior to administration. Other formulation strengths were prepared by diluting the Compound A in 30% w/v HP-β-CD with an appropriate amount of 30% w/v HP-β-CD vehicle.
Efficacy of Compounds 1 and 2 in RS4:11 Xenograft Model: 5×10^6 RS4; 11 cells in a total volume of 100 μL were inoculated subcutaneously at the mouse right flank. […]
(§1) On specific day, for each treated group, calculate Inhibition value by formula: Inhibition %=(CG-TG)*100/(CG-1), in which “CG” means the geometric mean of rtv of the control group and “TG” means the Geometric Mean of Relative Tumor Volume (rtv) of the treated group. “CG” should use the corresponding control group of the treated group when calculated. […]

SuDHL-4 = SuDHL-4 xenograft model in SCID mice, alone and with rituximab
Protocol: Formulations of Compound 1 for SuDHL-4 efficacy study: Compound 1 was formulated in a pH 5 citrate/phosphate buffer diluted 1:10 with 5% glucose and containing 1% w/v Kolliphor HS-15, at concentrations up to 105 mg/mL of Compound 1 (equivalent to up to 30 mg/mL of Compound A concentration).
Formulations of Compound 2 for dosing in SuDHL-4 efficacy study: Compound 2 was formulated in a pH 4 citrate/phosphate buffer diluted 1:10 with 5% Glucose and containing 1% w/v Kolliphor HS-15, at concentrations up to 121 mg/mL of Compound 2 (equivalent of up to 30 mg/mL of Compound A concentration).
Compounds 1 and 2 enhance inhibition of tumor growth by rituximab in SuDHL-4 Xenograft Model in SCID Mice: The SuDHL-4 xenograft model was used to test the ability of Compounds 1 and 2 to enhance the activity of rituximab in inhibiting tumor growth. […]
Tumor sizes were measured 2 times a week and calculated as: Tumor Volume=(A×B^2)/2 where A and B are the tumor length and width (in mm), respectively.
as §1

| Compound | time of cleaved PARP induction post treatment [1] | % Inhibition Day (47) ([2]; Compound A 5 mg/kg) | % Regression Day(47) ([2]; Compound A 5 mg/kg) | regression ([2]; Compound A HP-β-CD 10 mg/kg IV once) | T − C (SuDHL-4; rituximab 10 mg/kg alone) | % Inhibition (TIC) Day(41) (SuDHL-4; rituximab 10 mg/kg i.p. once a week for 5 weeks) |
| --- | --- | --- | --- | --- | --- | --- |
| CN(CCO)CC[C@H](CCSc1ccccc1)CNc1ccc(S(=O)(=O)NC(=O)c2ccc(N3CCC([C@@H](O)c4ccccc4-c4ccc(Cl)cc4)CC3)cc2)cc1S(=O)(=O)C(F)(F)F [Compound A, reference compound] | immediately post treatment 1 and 3 hr | >100% | 90% | 90% |  |  |
| rituximab [reference compound] |  |  |  |  | >16 days | 75.27% |
